Experimental data reported in patent US5036055A, “Acylated derivatives of etoposide” (Bristol-Myers Company, priority 1989, dated 1991).
≈ marks a conversion by molar mass, not a printed value. Read-outs that look alike come from different tables or passages of the source.

Experiments:
[1] = test system: P388 leukemia; experiment: in vivo antitumor activity against murine transplantable P388 leukemia; set-up: species or system murine (female CDF1 mice)
Protocol: Representative compounds of the present invention were evaluated for antitumor activity against murine transplantable P388 leukemia. Female CDF1 mice were inoculated intraperitoneally with 0.4 ml of diluted ascitic fluid containing 10^6 lymphocytic leukemia P388 cells. […] The percent increase of median survival time (MST) of treated animals over that of untreated control animals was determined and reported as % T/C. Compounds showing % T/C values of 125 or greater are considered to have significant antitumor activity. Table I presents the results of the in vivo evaluation; only the maximum % T/C and the dose giving the maximum effects are reported.

[2] = test system: B16-F10 murine melanoma; experiment: in vitro cytotoxicity against B16-F10 murine melanoma (neutral red, 540 nm); type: cell-based; conditions: Mus musculus, 72 hours incubation
Protocol: (§1) In vitro cytotoxicity of compounds of the present invention was evaluated against B16-F10 murine melanoma and Moser human colon carcinoma cell lines. Exponentially growing B16-F10 and Moser cells were harvested, counted and suspended in the culture medium at the concentrations of 1.5×10^4 and 3×10^4 cells/ml, respectively. Twenty-four hours after planting cell suspension (180 mcl) into wells of a 96-well microtiter plate, test materials (20 mcl) were added to the wells and the plates were incubated for 72 hours. The cytotoxic activities against the tumor cells were colorimetrically determined at 540 nm after staining viable cells with neutral red solution.

[3] = test system: Moser human colon carcinoma; experiment: in vitro cytotoxicity against Moser human colon carcinoma (neutral red, 540 nm); type: cell-based; conditions: 72 hours incubation
Protocol: as §1

[4] = 120 mg/kg/day, i.p. single dose on day 1, CDF1 mice
[5] = Mus musculus, P388, ip, 1200 h, read-out: % T/C MST
[6] = Mus musculus, P388, ip, 1200 h, 30 mg/kg/day, i.p. single dose on day 1, maximum % T/C at dose giving maximum effect, CDF1 mice, 50 days, read-out: % T/C MST
[7] = Mus musculus, P388, ip, 1200 h, 120 mg/kg/day, i.p. single dose on day 1, maximum % T/C at dose giving maximum effect, CDF1 mice, 50 days, read-out: % T/C MST

SMILES	IC50 [2] [µg/mL]	response vs control in vivo at 30 mg/kg [1, 6] [%]	IC50 [3] [µg/mL]	response vs control in vivo at 120 mg/kg [1, 7] [%]	also measured
COc1cc([C@@H]2c3cc4c(cc3[C@@H](O[C@@H]3O[C@@H]5CO[C@@H](C)O[C@H]5[C@H](O)[C@H]3O)[C@H]3COC(=O)[C@H]23)OCO4)cc(OC)c1O [Etoposide, etoposide]	0.45 (≈ 0.765 µM)				Number of survivors/tested on day 50 [1, 4]: 6/12; response vs control in vivo at 30 mg/kg [1, 5]: 182%; response vs control in vivo at 120 mg/kg [1, 5]: > 390%
COc1cc([C@@H]2c3cc4c(cc3[C@@H](O[C@@H]3O[C@@H]5CO[C@@H](C)O[C@H]5[C@H](OC(C)=O)[C@H]3OC(C)=O)[C@H]3COC(=O)[C@H]23)OCO4)cc(OC)c1O [Example 1, 2",3"-di-0-acetyl etoposide]	1.3 (≈ 1.93 µM)	165	< 0.8		
COc1cc([C@@H]2c3cc4c(cc3[C@@H](O[C@@H]3O[C@@H]5CO[C@@H](C)O[C@H]5[C@H](O)[C@H]3OC(C)=O)[C@H]3COC(=O)[C@H]23)OCO4)cc(OC)c1O [Example 3, 2"-0-acetyl etoposide]	1.6 (≈ 2.54 µM)	240	1.1 (≈ 1.74 µM)		
COc1cc([C@@H]2c3cc4c(cc3[C@@H](O[C@@H]3O[C@@H]5CO[C@@H](C)O[C@H]5[C@H](OC(C)=O)[C@H]3O)[C@H]3COC(=O)[C@H]23)OCO4)cc(OC)c1O [Example 4, 3"-0-acetyl-etoposide]	1.4 (≈ 2.22 µM)	210			
COc1cc([C@@H]2c3cc4c(cc3[C@@H](O[C@@H]3O[C@@H]5CO[C@@H](C)O[C@H]5[C@H](OC=O)[C@H]3OC=O)[C@H]3COC(=O)[C@H]23)OCO4)cc(OC)c1O [Example 6, 2",3"-di-0-formyl etoposide]	2 (≈ 3.1 µM)		0.84 (≈ 1.3 µM)	> 500	Number of survivors/tested on day 50 [1, 4]: 3/4
COc1cc([C@@H]2c3cc4c(cc3[C@@H](O[C@@H]3O[C@@H]5CO[C@@H](C)O[C@H]5[C@H](O)[C@H]3OC(=O)c3ccccc3)[C@H]3COC(=O)[C@H]23)OCO4)cc(OC)c1O [Example 8, 2"-0-benzoyletoposide]	0.92 (≈ 1.33 µM)			145	
COc1cc([C@@H]2c3cc4c(cc3[C@@H](O[C@@H]3O[C@@H]5CO[C@@H](C)O[C@H]5[C@H](OC(=O)c5ccccc5)[C@H]3O)[C@H]3COC(=O)[C@H]23)OCO4)cc(OC)c1O [Example 9, 3"-0-Benzoyletoposide]	0.17 (≈ 0.245 µM)		0.83 (≈ 1.2 µM)		Number of survivors/tested on day 50 ([1]; 60 mg/kg/day, i.p. single dose on day 1, CDF1 mice): 1/4; response vs control in vivo at 60 mg/kg ([1]; Mus musculus, P388, ip, 1200 h, 60 mg/kg/day, i.p. single dose on day 1, maximum % T/C at dose giving maximum effect, CDF1 mice, 50 days, read-out: % T/C MST): 420%
COc1cc([C@@H]2c3cc4c(cc3[C@@H](O[C@@H]3O[C@@H]5CO[C@@H](C)O[C@H]5[C@H](OC(=O)c5ccccc5)[C@H]3OC(=O)c3ccccc3)[C@H]3COC(=O)[C@H]23)OCO4)cc(OC)c1O [Example 10, 2",3"-0-di-benzoyletoposide]	4.4 (≈ 5.52 µM)			125	
